Test results taken from patent US12329760B2, “Methods and compositions for targeting retinoic acid for solid tumor immunotherapy” (THE TRUSTEES OF THE UNIVERSITY OF PENNSYLVANIA, priority 2019, dated 2025).

System: MCAS cells
Experiment: RALDH3 expression in treated MCAS cells by RT-QPCR
Format: cell-based, murine
Settings: for RALDH3 expression (relative to 18S): MCAS cells treated in vitro with cytokine, vs no Tx
Experimental: FIGS. 16A-16C show 1L13 and RALDH expression. FIG. 16A: MCAS cells were treated in vitro with indicated agents and RALDH3 expression (relative to 18S) measured by RT-QPCR. P<0.05 between no Tx and IL4 or IL13. N=3, repeated >5 times. FIG. 16B: IL13 and IL13Rα1 staining in murine UPS. FIG. 16C: Single cell suspension from MCAS tumors were fractionated into CD45+(Leukocytes) and CD45-fraction using miltenyi magnetic columns. RT-QPCR based measurement (relative to 18S) of IL13 and IL13Rα1 transcripts were performed on fractionated cells. P<0.01 for IL13. N=3, experiment repeated twice.
FIG. 20A: MCAS cells were treated with indicated compounds and RALDH3 expression (relative to 18S) measured by RT-QPCR. P<0.01 for DMSO vs. IL13. P<0.05 for IL13 vs. IL13+BMS493. FIG. 20B: Schematic of RALDH3 regulation by RA.
Aldefluor positive and negative cells were purified from murine fibrosarcomas and were transplanted into syngeneic B6 mice. Tumors derived from both types of cells generated both aldefluor positive and negative cells. This indicated the existence of an environmental signal in the TME that induces RA production in tumor cells. Th2 cytokines such as IL4 and IL13 can promote the differentiation of monocytes into either immunostimulatory DCs or immunosuppressive TAMS. Therefore, it was reasoned that tumors might induce RA production in the presence of IL4 or IL13 to block DC and promote TAM differentiation. To test this, MCAS cell lines were treated with cytokines promoting macrophage and DC differentiation and measured the expression of RALDH enzymes. […] IL13 and its receptor IL13Rα1 were also detected in murine sarcomas by IHC (FIG. 16B).

Molecule	potency of RALDH3 induction, IL13 compared with IL4 (MCAS cells in vitro)	RALDH3 expression (relative to 18S)
IL13: Th2 cytokine	more potent	induced the expression of RALDH3
IL4: Th2 cytokine (protein, UniProt P05112 25-153, looked up) Interleukin-4: HKCDITLQEIIKTLNSLTEQKTLCTELTVTDIFAASKNTTEKETFCRAATVLRQFYSHHEKDTRCLGATAQQFHRHKQLIRFLKRLDRNLWGLAGLNSCPVKEANQSTLENFLERLKTIMREKYSKCSS		induced the expression of RALDH3
